Test results taken from patent US8546451B2 (priority 2005, dated 2013).
Marks after values point to notes of the source that are not given here.

Test system: testosterone, prostate specific antigen (PSA), prostate volume and weight
Experiment: 39-week oral pharmacology and toxicology study in male cynomolgus monkey (13-week interim)
Conditions: for reduction of prostate volume: six weeks; for reduction of mean prostate weights: thirteen weeks
[1] = Day 7, 10 mg/kg/day oral, Quantifiable concentrations only
[2] = Day 7, 100 mg/kg/day oral, Estimated final concentrations
[3] = Day 7, 100 mg/kg/day oral, Quantifiable concentrations only
[4] = Day 14, 1 mg/kg/day oral, Estimated final concentrations
[5] = Day 14, 1 mg/kg/day oral, Quantifiable concentrations only
[6] = Day 14, 10 mg/kg/day oral, Estimated final concentrations
[7] = Day 14, 10 mg/kg/day oral, Quantifiable concentrations only
[8] = Day 14, 100 mg/kg/day oral, Estimated final concentrations
[9] = Day 14, 100 mg/kg/day oral, Quantifiable concentrations only
[10] = Day 28, 1 mg/kg/day oral, Estimated final concentrations
[11] = Day 28, 1 mg/kg/day oral, Quantifiable concentrations only
[12] = Day 28, 10 mg/kg/day oral, Estimated final concentrations
[13] = Day 28, 10 mg/kg/day oral, Quantifiable concentrations only
[14] = Day 28, 100 mg/kg/day oral, Estimated final concentrations
[15] = Day 28, 100 mg/kg/day oral, Quantifiable concentrations only
[16] = Day 64, 1 mg/kg/day oral, Estimated final concentrations
[17] = Day 64, 1 mg/kg/day oral, Quantifiable concentrations only
[18] = Day 64, 10 mg/kg/day oral, Estimated final concentrations
[19] = Day 64, 10 mg/kg/day oral, Quantifiable concentrations only
[20] = Day 64, 100 mg/kg/day oral, Estimated final concentrations
[21] = Day 64, 100 mg/kg/day oral, Quantifiable concentrations only
[22] = Day 90, 1 mg/kg/day oral, Estimated final concentrations
[23] = Day 90, 1 mg/kg/day oral, Quantifiable concentrations only
[24] = Day 90, 10 mg/kg/day oral, Estimated final concentrations
[25] = Day 90, 10 mg/kg/day oral, Quantifiable concentrations only
[26] = Day 90, 100 mg/kg/day oral, Estimated final concentrations
[27] = Day 90, 100 mg/kg/day oral, Quantifiable concentrations only

Structure (SMILES): O=C(c1ccc(O)c(F)c1)N(c1ccc(O)cc1)c1ccc(F)cc1 [Compound IV, 3-fluoro-N-(4-fluorophenyl)-4-hydroxy-N-(4-hydroxyphenyl)benzamide]
- Percentage change of mean serum testosterone levels compared to baseline (Day 7, 10 mg/kg/day oral, Estimated final concentrations): 57%
- Mean serum testosterone level [1]: 7.7 ng/mL
- Percentage change of mean testosterone levels compared to baseline [1]: 57%
- suppression of serum testosterone relative to the baseline value (Day 7, 100 mg/kg/day oral): 51%
- Mean serum testosterone level [2]: 2.2* ng/mL
- Percentage change of mean serum testosterone levels compared to baseline [2]: −51%
- Mean serum testosterone level [3]: 2.2 ng/mL
- Percentage change of mean testosterone levels compared to baseline [3]: −51%
- Mean serum testosterone level [4]: 3.8 ng/mL
- Percentage change of mean serum testosterone levels compared to baseline [4]: −48%
- Mean serum testosterone level [5]: 3.8 ng/mL
- Percentage change of mean testosterone levels compared to baseline [5]: −48%
- Mean serum testosterone level [6]: 7.1 ng/mL
- Percentage change of mean serum testosterone levels compared to baseline [6]: 45%
- Mean serum testosterone level [7]: 7.1 ng/mL
- Percentage change of mean testosterone levels compared to baseline [7]: 45%
- suppression of serum testosterone relative to the baseline value (Day 14, 100 mg/kg/day oral): 42%
- Mean serum testosterone level [8]: 2.6 ng/mL
- Percentage change of mean serum testosterone levels compared to baseline [8]: −42%
- Mean serum testosterone level [9]: 2.6 ng/mL
- Percentage change of mean testosterone levels compared to baseline [9]: −42%
- Mean serum testosterone level [10]: 4.7 ng/mL
- Percentage change of mean serum testosterone levels compared to baseline [10]: −35%
- Mean serum testosterone level [11]: 4.7 ng/mL
- Percentage change of mean testosterone levels compared to baseline [11]: −35%
- Mean serum testosterone level [12]: 9.4 ng/mL
- Percentage change of mean serum testosterone levels compared to baseline [12]: 92%
- Mean serum testosterone level [13]: 9.4 ng/mL
- Percentage change of mean testosterone levels compared to baseline [13]: 92%
- suppression of serum testosterone relative to the baseline value (Day 28, 100 mg/kg/day oral): 79%
- Mean serum testosterone level [14]: 0.9* ng/mL
- Percentage change of mean serum testosterone levels compared to baseline [14]: −79%
- Mean serum testosterone level [15]: 0.9 ng/mL
- Percentage change of mean testosterone levels compared to baseline [15]: −79%
- Mean serum testosterone level [16]: 4.3 ng/mL
- Percentage change of mean serum testosterone levels compared to baseline [16]: −41%
- Mean serum testosterone level [17]: 4.3 ng/mL
- Percentage change of mean testosterone levels compared to baseline [17]: −41%
- Mean serum testosterone level [18]: 5.4 ng/mL
- Percentage change of mean serum testosterone levels compared to baseline [18]: 11%
- Mean serum testosterone level [19]: 5.4 ng/mL
- Percentage change of mean testosterone levels compared to baseline [19]: 11%
- suppression of serum testosterone relative to the baseline value (Day 64, 100 mg/kg/day oral): 92%
- Mean serum testosterone level [20]: 0.3* ng/mL
- Percentage change of mean serum testosterone levels compared to baseline [20]: −92%
- Mean serum testosterone level [21]: 0.3 ng/mL
- Percentage change of mean testosterone levels compared to baseline [21]: −92%
- Mean serum testosterone level [22]: 4.2 ng/mL
- Percentage change of mean serum testosterone levels compared to baseline [22]: −42%
- Mean serum testosterone level [23]: 4.2 ng/mL
- Percentage change of mean testosterone levels compared to baseline [23]: −42%
- Mean serum testosterone level [24]: 4.6 ng/mL
- Percentage change of mean serum testosterone levels compared to baseline [24]: −5.5%
- Mean serum testosterone level [25]: 4.6 ng/mL
- Percentage change of mean testosterone levels compared to baseline [25]: −5.5%
- Mean serum testosterone level [26]: 0.2* ng/mL
- Percentage change of mean serum testosterone levels compared to baseline [26]: −96%
- suppression of serum testosterone relative to the baseline value [26]: 96%
- Mean serum testosterone level [27]: 0.2 ng/mL
- Percentage change of mean testosterone levels compared to baseline [27]: −95%
- monkeys with testosterone below the limit of quantification (after 90 days, 100 mg/kg/day oral, LLOQ 0.246 ng/mL): 6 of 10
- testosterone flare (any dose up to 100 mg/kg/day): not observed
- effects on platelet aggregation, prothrombin time (PT) or activated partial thromboplastin time (APTT) (cynomolgus monkey, in vivo): No apparent effects
- reduction of prostate volume (10 mg/kg): 25%
- reduction of prostate volume (100 mg/kg): 45%
- reduction of mean prostate weights (10 mg/kg/day): 24%
- reduction of mean prostate weights (100 mg/kg/day): 21%
